Data on 48 compounds can be found in patent publication US8034940B2, “Modulators of glucocorticoid receptor, AP-1, and/or NF-κB activity and use thereof” (Bristol-Myers Squibb Company, priority 2006, dated 2011).

For assay [1], the target named is T1, human full-length glucocorticoid receptor (Homo sapiens, UniProt P04150).
T1 sequence (P04150 1-777): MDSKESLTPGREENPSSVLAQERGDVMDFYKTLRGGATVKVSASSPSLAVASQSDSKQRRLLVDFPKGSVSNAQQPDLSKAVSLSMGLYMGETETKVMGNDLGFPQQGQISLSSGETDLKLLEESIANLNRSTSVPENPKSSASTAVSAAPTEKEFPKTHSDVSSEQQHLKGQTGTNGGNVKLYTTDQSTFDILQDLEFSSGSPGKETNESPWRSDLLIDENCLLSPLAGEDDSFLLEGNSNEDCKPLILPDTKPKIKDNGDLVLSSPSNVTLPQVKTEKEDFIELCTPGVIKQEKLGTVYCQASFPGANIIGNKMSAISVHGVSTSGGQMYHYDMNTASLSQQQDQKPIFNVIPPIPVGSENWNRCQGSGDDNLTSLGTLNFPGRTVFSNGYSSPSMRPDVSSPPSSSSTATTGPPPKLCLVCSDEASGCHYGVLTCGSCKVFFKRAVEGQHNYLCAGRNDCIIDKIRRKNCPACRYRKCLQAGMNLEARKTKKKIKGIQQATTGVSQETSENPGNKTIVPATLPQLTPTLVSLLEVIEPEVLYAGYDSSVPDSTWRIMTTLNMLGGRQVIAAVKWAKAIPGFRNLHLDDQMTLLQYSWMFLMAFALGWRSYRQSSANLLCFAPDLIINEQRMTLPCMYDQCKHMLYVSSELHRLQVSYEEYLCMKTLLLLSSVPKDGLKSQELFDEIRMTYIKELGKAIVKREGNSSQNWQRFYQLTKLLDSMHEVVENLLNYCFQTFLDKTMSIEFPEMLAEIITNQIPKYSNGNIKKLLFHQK
The assay is described as follows: Glucocorticoid Receptor Binding Assay (II), fluorescence polarization, FITC-dexamethasone. On the set-up: recombinantly expressed human full-length glucocorticoid receptor; purchased PanVera Co., Madison P2816. Particulars: GR Binding Assay (II); read-out: GR (Ki, nM) (GR Binding Assay (II)). How it is done:
Glucocorticoid Receptor Binding Assay (II)^b
In order to measure the binding of compounds on the glucocorticoid receptor a commercially available kit was used (Glucocorticoid receptor competitor assay kit, PanVera Co., Madison, W1, P2816). Briefly, a cell lysate containing recombinantly expressed human full-length glucocorticoid receptor was mixed with a fluorescently labeled glucocorticoid (4 nM FITC-dexamethasone) plus or minus test molecule. After one hour at room temperature, the fluorescence polarization (FP) of the samples were measured. […] Test molecules were analyzed in the concentration range from 0.1 nM to 40 μM.
(In general: Fluorescence polarisation rises when a labelled molecule tumbles more slowly, as on binding a larger partner.)

Assay [2] has as its target T1, human full-length glucocorticoid receptor. The assay can be described thus: Glucocorticoid Receptor Binding Assay (I), fluorescence polarization, Fluormone GS Red. On the set-up: purified human recombinant full-length glucocorticoid receptor; purchased Invitrogen Part #2893. Particulars: GR Binding Assay (I); read-out: GR (Ki, nM) (GR Binding Assay (I)). The gist of the method:
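Fluorescence polarization competition: 2 nM purified full-length recombinant receptor with 1 nM Fluormone GS Red tracer, ±test compound over 8.5E-05 to 5 μM. Incubation was 2 h at room temperature in the dark before reading FP.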

The test system of assay [3] is AP-1 induced transcriptional activity. The assay is described as follows: Cellular Transrepressional Assay (AP-1 luciferase reporter, PMA-activated A549 cells). Type of assay: cell-based. The settings on record: Homo sapiens, A549, 7 h, maximum inhibition, Cellular Transrepression Assay; read-out: AP-1 Max % inh (Cellular Transrepression Assay). An outline of the steps:
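A549 cells stably carrying a 7× AP-1–luciferase reporter were stimulated with 10 ng/ml PMA with or without compound (0.1 nM–40 μM) for 7 h. Luminescence read 10 min after luciferase reagent; EC50 fitted from % decrease versus PMA-only signal.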
A general note: A reporter such as luciferase makes a cellular process visible.

On to `CC(C)(C(=O)Nc1nncs1)[C@@H]1c2ccccc2Oc2nc(N3CCC4(CC3)OCCO4)ccc21` [Example 135], for which the inhibitory constant (Ki) in assay [1] was found to be 537 nM. `COc1ccc2c(c1)Oc1ccccc1[C@H]2C(C)(C)C(=O)Nc1nccs1` [Example 56]: the inhibition constant Ki in assay [1] stood at 233 nM. `CN(C)c1ccc2c(n1)Oc1ccccc1[C@@H]2C(C)(C)C(=O)Nc1nncs1` [Example 149]: the inhibition constant Ki in assay [1] stood at 11 nM. Turning to `Cc1cnc(NC(=O)C(C)(C)[C@@H]2c3ccccc3Oc3cc(O)ccc32)s1` [Example 92], the inhibition constant Ki in assay [1] was 1200 nM. On to `CC(C)(C(=O)Nc1nccs1)C1c2ccccc2-c2ccc(O)cc21` (stereo not shown) [Example 22], for which the Ki in assay [1] stood at 1640 nM. Same read-out and setting: the figure for `CC(C)Nc1ccc2c(n1)Oc1ccccc1C2C(C)(C)C(=O)Nc1nccs1` (stereo not shown) [Example 157] is 186 nM.

As for `CC(C)(C(=O)Nc1nncs1)C1c2ccccc2Oc2ccccc21` [Example 39], the inhibitory constant (Ki) in assay [1] was determined as 39.7 nM. As to `CC(C)(C(=O)Nc1nccs1)C1c2ccccc2Oc2ncccc21` (stereo not shown) [Example 67], in assay [1], the inhibition constant (Ki) came out at 107 nM. `CC1CCCN(c2ccc3c(n2)Oc2ccccc2[C@@H]3C(C)(C)C(=O)Nc2nncs2)C1` (stereo partly shown) [Example 150]: the Ki in assay [1] is 26.9 nM.

Consider `COc1ccc2c(c1)Oc1ccccc1[C@@H]2C(C)(C)C(=O)Nc1nncs1` [Example 62], for which, in assay [1], the inhibitory constant (Ki) turned out to be 58 nM. Take `CC(C)(C(=O)Nc1nncs1)[C@H]1c2ccccc2Oc2nc(-c3ccc(C(=O)N4CCC(S(C)(=O)=O)C4)cc3)ccc21` (stereo partly shown) [Example 288]: in assay [2], the inhibitory constant (Ki) amounted to 13.8 nM. For the same compound, the Emax in assay [3] was 35.5%. In the case of `CC(C)(C(=O)Nc1nccs1)[C@H]1c2ccccc2Oc2nc(N3CCCCC3)ccc21` [Example 148], the inhibition constant (Ki) in assay [1] was 11.1 nM.

Take `CCCCNc1ccc2c(c1)Oc1ncccc1C2C(C)(C)C(=O)Nc1nccs1` (stereo not shown) [Example 155]: in assay [1], the inhibition constant (Ki) worked out at 31.8 nM. On to `COC(=O)c1csc(NC(=O)C(C)(C)C2c3ccccc3Oc3cc(O)ccc32)n1` (stereo not shown) [Example 99], for which the Ki in assay [1] stood at 18.3 nM. Regarding `CC(C)(C(=O)Nc1nncs1)[C@H]1c2ccccc2Oc2nc(-c3ccc(C(=O)NCCc4ccccc4)cc3)ccc21` [Example 354], the Ki in assay [2] amounted to 20.1 nM. Also, the Emax in assay [3] was 28.9%. Regarding `CC(C)(C(=O)Nc1nncs1)[C@@H]1c2ccccc2Oc2nc(N3CCCCC3)ccc21` [Example 134], in assay [1], the Ki was 444 nM. Turning to `COCCOCOc1ccc2c(c1)Oc1ccccc1C2C(C)(C)C(=O)Nc1nccs1` (stereo not shown) [Example 98], the Ki in assay [1] came out at 88.7 nM. Consider `CC(C)(C(=O)Nc1nc(Cc2ccccc2)cs1)C1c2ccccc2Oc2ccccc21` [Example 36], for which the Ki in assay [1] is 1040 nM.

Consider `CC(C)(C(=O)Nc1nncs1)[C@H]1c2ccccc2Oc2nc(-c3ccc(C(=O)N4CCC(C(F)(F)F)CC4)cc3)ccc21` [Example 290], for which the inhibition constant (Ki) in assay [2] was determined as 20.4 nM. For the same compound, the Emax in assay [3] turned out to be 28.8%. Consider `COc1ccc(CNc2ccc3c(n2)Oc2ccccc2[C@H]3C(C)(C)C(=O)Nc2nncs2)cc1` (racemic) [Example 136], for which the Ki in assay [1] came out at 141 nM. On to `CC(C)(C(=O)Nc1nncs1)[C@H]1c2ccccc2Oc2nc(-c3ccc(C(=O)N4CCN(CCO)CC4)cc3)ccc21` [Example 275], for which the Ki in assay [2] turned out to be 2.6 nM. Moreover, the Emax in assay [3] came out at 26%. For `CCOC(=O)c1csc(NC(=O)C(C)(C)C2c3ccccc3Oc3ncccc32)n1` (stereo not shown) [Example 68], the Ki in assay [1] was determined as 820 nM. Take `CC(C)(C(=O)Nc1nncs1)C1c2ccccc2Oc2nc(Cl)ccc21` (stereo not shown) [Example 76]: the inhibition constant (Ki) in assay [1] was 76.4 nM. In the case of `CCOC(=O)c1csc(NC(=O)C(C)(C)C2c3ccccc3CCc3ccccc32)n1` [Example 23], the Ki in assay [1] stood at 445 nM. Turning to `CCOC(=O)c1csc(NC(=O)C(C)(C)C2c3ccccc3Oc3cc(O)ccc32)n1` (stereo not shown) [Example 96], the inhibition constant (Ki) in assay [1] was found to be 22.1 nM. The same measure, in the same setting: the figure for `Cc1csc(NC(=O)C(C)(C)[C@@H]2c3ccccc3Oc3cc(O)ccc32)n1` [Example 93] is 1270 nM.

Regarding `CC(C)(C(=O)Nc1nccs1)C1c2ccccc2CCc2ccccc21` [Example 25], the inhibition constant Ki in assay [1] was 41.1 nM. With `Cc1csc(NC(=O)C(C)(C)C2c3ccccc3Oc3ncccc32)n1` (stereo not shown) [Example 70], in assay [1], the inhibition constant (Ki) amounted to 762 nM. Turning to `CC(C)(C(=O)Nc1nncs1)[C@H]1c2ccccc2Oc2nc(-c3ccc(C(=O)N4CCCN(Cc5ccccc5)CC4)cc3)ccc21` [Example 298], in assay [2], the inhibition constant Ki stood at 242 nM. Further, the Emax in assay [3] is 25.4%. In the case of `COc1ccc(-c2ccc3c(n2)Oc2ccccc2[C@H]3C(C)(C)C(=O)Nc2nncs2)cc1` [Example 162], the Ki in assay [1] was 256 nM. Same read-out and setting: the figure for `CC(C)(C(=O)Nc1nccs1)C1c2ccccc2Oc2c(O)cccc21` (stereo not shown) [Example 81] is 243 nM; for `CC(C)(C(=O)Nc1nncs1)[C@H]1c2ccccc2Oc2nc(N3CCCC(c4ccccc4)C3)ccc21` (stereo partly shown) [Example 147] it is 4030 nM.

For the compound `CN(CCS(C)(=O)=O)C(=O)c1ccc(-c2ccc3c(n2)Oc2ccccc2[C@@H]3C(C)(C)C(=O)Nc2nncs2)cc1` [Example 286], the inhibition constant Ki in assay [2] amounted to 12.2 nM. Further, the Emax in assay [3] turned out to be 49.8%. Consider `CC(C)(C(=O)Nc1nccs1)C1c2ccccc2Oc2ccccc21` [Example 37], for which the Ki in assay [1] stood at 1.4 nM.

In the case of `CN(Cc1ccncc1)C(=O)c1ccc(-c2ccc3c(n2)Oc2ccccc2[C@@H]3C(C)(C)C(=O)Nc2nncs2)cc1` [Example 301], in assay [2], the inhibitory constant (Ki) is 20.3 nM. For the same compound, in assay [3], the Emax turned out to be 28.6%.

For `COC[C@H]1CCCN1C(=O)c1ccc(-c2ccc3c(n2)Oc2ccccc2[C@@H]3C(C)(C)C(=O)Nc2nncs2)cc1` [Example 285], the inhibitory constant (Ki) in assay [2] is 5.84 nM. For the same compound, the Emax in assay [3] came to 45.3%. Take `CC(C)(C(=O)Nc1nncs1)[C@H]1c2ccccc2Oc2nc(-c3ccc(C(=O)N4CCCN(CCO)CC4)cc3)ccc21` [Example 303]: the Ki in assay [2] was 278 nM. Moreover, the Emax in assay [3] came to 28.6%. `CC(C)(C(=O)Nc1nncs1)[C@H]1c2ccccc2Oc2nc(-c3ccc(C(=O)N4CCc5ccccc5C4)cc3)ccc21` [Example 280]: the inhibition constant Ki in assay [2] came out at 10.8 nM. Besides, the Emax in assay [3] came out at 33.5%. For the compound `COCCN(C)C(=O)c1ccc(-c2ccc3c(n2)Oc2ccccc2[C@@H]3C(C)(C)C(=O)Nc2nncs2)cc1` [Example 295], the Ki in assay [2] came out at 38.7 nM. In assay [3], the Emax was 24.4%. Consider `COC[C@H]1CCCN1c1ccc2c(n1)Oc1ccccc1[C@@H]2C(C)(C)C(=O)Nc1nncs1` [Example 145], for which the inhibitory constant (Ki) in assay [1] is 1160 nM. On to `COC(=O)CN(C)C(=O)c1ccc(-c2ccc3c(n2)Oc2ccccc2[C@@H]3C(C)(C)C(=O)Nc2nncs2)cc1` [Example 293], for which the Ki in assay [2] is 10.4 nM. For the same compound, the Emax in assay [3] is 25.4%. Turning to `CC1CN(C(=O)c2ccc(-c3ccc4c(n3)Oc3ccccc3[C@@H]4C(C)(C)C(=O)Nc3nncs3)cc2)CC(C)O1` (stereo partly shown) [Example 273], the inhibition constant Ki in assay [2] was 19.9 nM. For the same compound, in assay [3], the Emax was found to be 21%.

Consider `CC1CC(C)CN(C(=O)c2ccc(-c3ccc4c(n3)Oc3ccccc3[C@@H]4C(C)(C)C(=O)Nc3nncs3)cc2)C1` (stereo partly shown) [Example 305], for which the Ki in assay [2] turned out to be 24.7 nM. In addition, the Emax in assay [3] worked out at 38.3%. In the same order, the values of `COC1CN(C(=O)c2ccc(-c3ccc4c(n3)Oc3ccccc3[C@@H]4C(C)(C)C(=O)Nc3nncs3)cc2)C1` [Example 289] are 20 nM and 24.3%. `CC(C)(C(=O)Nc1nncs1)[C@H]1c2ccccc2Oc2nc(-c3ccc(C(=O)NCCO)cc3)ccc21` [Example 357]: the inhibition constant (Ki) in assay [2] stood at 31.4 nM. Moreover, in assay [3], the Emax was 29.6%. As for `CN(CCc1ccccc1)C(=O)c1ccc(-c2ccc3c(n2)Oc2ccccc2[C@@H]3C(C)(C)C(=O)Nc2nncs2)cc1` [Example 276], in assay [2], the Ki was 4.05 nM. Besides, the Emax in assay [3] was 27.2%. On to `CCS(=O)(=O)N1CCN(C(=O)c2ccc(-c3ccc4c(n3)Oc3ccccc3[C@@H]4C(C)(C)C(=O)Nc3nncs3)cc2)CC1` [Example 283], for which, in assay [2], the Ki was determined as 9.21 nM. For the same compound, the Emax in assay [3] is 24.6%. In the same order, the values of `CC(C)CCN(C)C(=O)c1ccc(-c2ccc3c(n2)Oc2ccccc2[C@@H]3C(C)(C)C(=O)Nc2nncs2)cc1` [Example 270] are 20.9 nM and 28%.

By Ki is commonly meant the dissociation constant of the complex between target and ligand, obtained from inhibition or displacement.
